In PubChem BioAssay AID1845217 (Molecular Pharmacology Branch, DTP, NCI, 2023):

System: VA-ES-BJ tumor spheroid viability
Assay: Anticancer human tumor VA-ES-BJ cell line growth inhibition;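 note: spheroids exposed to compounds for seven days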;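 for viability, T/C: percent of DMSO vehicle control viability so 100% = untreated growth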
Conditions: spheroids with HUVEC and MSC; for IC50: curve of first compound; for viability, T/C: stronger effect = lower value
In short: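 Complex spheroids of malignant cells with endothelial cells and mesenchymal stem cells; agents alone or combined, from near clinical Cmax (or 10 microM if unknown) down in half-log steps, 0.25% DMSO final.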

[1] = second compound 30 pM, first compound 0.0316 µM
[2] = second compound 30 pM, first compound 0.1 µM
[3] = second compound 30 pM, first compound 0.316 µM
[4] = second compound 30 pM, first compound 1 µM
[5] = second compound 30 pM, first compound 3.16 µM
[6] = second compound 30 pM, first compound 10 µM
[7] = second compound 94.9 pM, first compound 0.0316 µM
[8] = second compound 94.9 pM, first compound 0.1 µM
[9] = second compound 94.9 pM, first compound 0.316 µM
[10] = second compound 94.9 pM, first compound 1 µM
[11] = second compound 94.9 pM, first compound 3.16 µM
[12] = second compound 94.9 pM, first compound 10 µM
[13] = second compound 0.0003 µM, first compound 0.0316 µM
[14] = second compound 0.0003 µM, first compound 0.1 µM
[15] = second compound 0.0003 µM, first compound 0.316 µM
[16] = second compound 0.0003 µM, first compound 1 µM
[17] = second compound 0.0003 µM, first compound 3.16 µM
[18] = second compound 0.0003 µM, first compound 10 µM
[19] = second compound 0.000949 µM, first compound 0.0316 µM
[20] = second compound 0.000949 µM, first compound 0.1 µM
[21] = second compound 0.000949 µM, first compound 0.316 µM
[22] = second compound 0.000949 µM, first compound 1 µM
[23] = second compound 0.000949 µM, first compound 3.16 µM
[24] = second compound 0.000949 µM, first compound 10 µM
[25] = second compound 0.003 µM, first compound 0.0316 µM
[26] = second compound 0.003 µM, first compound 0.1 µM
[27] = second compound 0.003 µM, first compound 0.316 µM
[28] = second compound 0.003 µM, first compound 1 µM
[29] = second compound 0.003 µM, first compound 3.16 µM
[30] = second compound 0.003 µM, first compound 10 µM

CC1COCCN1c1cc(-c2ccnn2C)c2ccnc(-c3ccn[nH]3)c2n1 (stereo not given) + COc1cc2c(cc1O)CCNC21CSC2c3c(OC(C)=O)c(C)c4c(c3C(COC1=O)N1C(O)C3Cc5cc(C)c(OC)c(O)c5C(C21)N3C)OCO4
IC50 (second compound 30 pM): < 31.6 nM | IC50 (second compound 94.9 pM): < 31.6 nM | IC50 (second compound 0.0003 µM): < 31.6 nM | IC50 (second compound 0.000949 µM): < 31.6 nM | IC50 (second compound 0.003 µM): < 31.6 nM | viability, T/C [1]: 38% | viability, T/C [2]: 19.5% | viability, T/C [3]: 8.68% | viability, T/C [4]: 5.69% | viability, T/C [5]: 4.98% | viability, T/C [6]: 4.49% | viability, T/C [7]: 26% | viability, T/C [8]: 21.3% | viability, T/C [9]: 8.87% | viability, T/C [10]: 4.99% | viability, T/C [11]: 5.01% | viability, T/C [12]: 4.7% | viability, T/C [13]: 16.9% | viability, T/C [14]: 12% | viability, T/C [15]: 8.21% | viability, T/C [16]: 5.23% | viability, T/C [17]: 5.32% | viability, T/C [18]: 5.04% | viability, T/C [19]: 2.61% | viability, T/C [20]: 2.73% | viability, T/C [21]: 2.01% | viability, T/C [22]: 1.53% | viability, T/C [23]: 0.5% | viability, T/C [24]: 0.13% | viability, T/C [25]: 1.26% | viability, T/C [26]: 1.04% | viability, T/C [27]: 0.77% | viability, T/C [28]: 1% | viability, T/C [29]: 0.35% | viability, T/C [30]: 0.56%

COc1cc(C)[nH]c(=O)c1CN1CCc2c(Cl)cc(C(OC)C3COC3)c(Cl)c2C1=O (stereo not given) + COc1cc2c(cc1O)CCNC21CSC2c3c(OC(C)=O)c(C)c4c(c3C(COC1=O)N1C(O)C3Cc5cc(C)c(OC)c(O)c5C(C21)N3C)OCO4
IC50 (second compound 30 pM): 933 nM | IC50 (second compound 94.9 pM): 981 nM | IC50 (second compound 0.0003 µM): < 31.6 nM | IC50 (second compound 0.000949 µM): < 31.6 nM | IC50 (second compound 0.003 µM): < 31.6 nM | viability, T/C [1]: 75.7% | viability, T/C [2]: 71.1% | viability, T/C [3]: 58.6% | viability, T/C [4]: 49.4% | viability, T/C [5]: 45.2% | viability, T/C [6]: 40.9% | viability, T/C [7]: 66.9% | viability, T/C [8]: 68.6% | viability, T/C [9]: 59.3% | viability, T/C [10]: 49% | viability, T/C [11]: 43.1% | viability, T/C [12]: 36.8% | viability, T/C [13]: 38.5% | viability, T/C [14]: 36.2% | viability, T/C [15]: 33.1% | viability, T/C [16]: 36.7% | viability, T/C [17]: 27.2% | viability, T/C [18]: 29.4% | viability, T/C [19]: 2.44% | viability, T/C [20]: 2.53% | viability, T/C [21]: 2.69% | viability, T/C [22]: 2.75% | viability, T/C [23]: 2.25% | viability, T/C [24]: 1.84% | viability, T/C [25]: 1.25% | viability, T/C [26]: 1.11% | viability, T/C [27]: 1.37% | viability, T/C [28]: 1.01% | viability, T/C [29]: 1.1% | viability, T/C [30]: 2%

Cc1cc(C)c(CNC(=O)c2cc(-c3ccc(CN4CCOCC4)cc3)cc3c2cnn3C2CCCC2)c(=O)[nH]1 + COc1cc2c(cc1O)CCNC21CSC2c3c(OC(C)=O)c(C)c4c(c3C(COC1=O)N1C(O)C3Cc5cc(C)c(OC)c(O)c5C(C21)N3C)OCO4
IC50 (second compound 30 pM): > 10000 nM | IC50 (second compound 94.9 pM): > 10000 nM | IC50 (second compound 0.0003 µM): < 31.6 nM | IC50 (second compound 0.000949 µM): < 31.6 nM | IC50 (second compound 0.003 µM): < 31.6 nM | viability, T/C [1]: 103% | viability, T/C [2]: 105% | viability, T/C [3]: 109% | viability, T/C [4]: 104% | viability, T/C [5]: 101% | viability, T/C [6]: 96.4% | viability, T/C [7]: 97.6% | viability, T/C [8]: 101% | viability, T/C [9]: 96.8% | viability, T/C [10]: 95.2% | viability, T/C [11]: 88.7% | viability, T/C [12]: 82.6% | viability, T/C [13]: 48.5% | viability, T/C [14]: 48.4% | viability, T/C [15]: 47.7% | viability, T/C [16]: 42.4% | viability, T/C [17]: 38.6% | viability, T/C [18]: 32.6% | viability, T/C [19]: 2.91% | viability, T/C [20]: 3.27% | viability, T/C [21]: 3.08% | viability, T/C [22]: 2.61% | viability, T/C [23]: 2.08% | viability, T/C [24]: 1.68% | viability, T/C [25]: 0.95% | viability, T/C [26]: 1.8% | viability, T/C [27]: 1.23% | viability, T/C [28]: 1.96% | viability, T/C [29]: 1.92% | viability, T/C [30]: 1.57%

[2H]c1nc(C)nc([2H])c1-c1cc(NC[C@@H](C)c2cccc3c(C(=O)NC)ccnc23)ncn1 + COc1cc2c(cc1O)CCNC21CSC2c3c(OC(C)=O)c(C)c4c(c3C(COC1=O)N1C(O)C3Cc5cc(C)c(OC)c(O)c5C(C21)N3C)OCO4
IC50 (second compound 30 pM): > 10000 nM | IC50 (second compound 94.9 pM): > 10000 nM | IC50 (second compound 0.0003 µM): < 31.6 nM | IC50 (second compound 0.000949 µM): < 31.6 nM | IC50 (second compound 0.003 µM): < 31.6 nM | viability, T/C [1]: 75.6% | viability, T/C [2]: 78.4% | viability, T/C [3]: 81.4% | viability, T/C [4]: 81.9% | viability, T/C [5]: 85.2% | viability, T/C [6]: 87.5% | viability, T/C [7]: 72.9% | viability, T/C [8]: 74% | viability, T/C [9]: 83.1% | viability, T/C [10]: 81% | viability, T/C [11]: 82.6% | viability, T/C [12]: 76.8% | viability, T/C [13]: 46.8% | viability, T/C [14]: 40.9% | viability, T/C [15]: 43.9% | viability, T/C [16]: 42.1% | viability, T/C [17]: 36% | viability, T/C [18]: 38.4% | viability, T/C [19]: 3.46% | viability, T/C [20]: 1.96% | viability, T/C [21]: 3.4% | viability, T/C [22]: 2.92% | viability, T/C [23]: 2.41% | viability, T/C [24]: 1.53% | viability, T/C [25]: 0.81% | viability, T/C [26]: 0.92% | viability, T/C [27]: 0.98% | viability, T/C [28]: 1.25% | viability, T/C [29]: 1.28% | viability, T/C [30]: 2.09%
